{"source": "patent US6403090B1", "about": "“Peptides which mimic candida carbohydrate epitopes and their use in a vaccine” (The Research and Development Institute Inc., priority 1994, dated 2002)", "molecules": {"B1": {"name": "PS76-OVA: PS76p conjugated to ovalbumin via GMBS (conjugate)", "peptide": "YRQFVTGFWGPPC", "chain": "GSIGAASMEFCFDVFKELKVHHANENIFYCPIAIMSALAMVYLGAKDSTRTQINKVVRFDKLPGFGDSIEAQCGTSVNVHSSLRDILNQITKPNDVYSFSLASRLYAEERYPILPEYLQCVKELYRGGLEPINFQTAADQARELINSWVESQTNGIIRNVLQPSSVDSQTAMVLVNAIVFKGLWEKAFKDEDTQAMPFRVTEQESKPVQMMYQIGLFRVASMASEKMKILELPFASGTMSMLVLLPDEVSGLEQLESIINFEKLTEWTSSNVMEERKIKVYLPRMKMEEKYNLTSVLMAMGITDVFSSSANLSGISSAESLKISQAVHAAHAEINEAGREVVGSAEAGVDAASVSEEFRADHPFLFCIKHIATNAVLFFGRCVSP"}}, "key": {"g3p in COS-1 cells": {"system": "g3p in COS-1 cells", "assay": "g3p expression in transfected COS-1 cells by IFA", "type": "cell-based", "conditions": "COS-1 cells treated with protease inhibitor", "procedure": "To achieve greater levels of expression, the plasmids were transfected into COS-1 cells, which are capable of replicating the plasmids and generating exceptional amounts of the encoded proteins. […] Several different transfection methods and variations were tested to increase the proportion of cells that would express detectable g3p. […] Therefore, g3p is likely being broken down rapidly by the mammalian cells.\nThis possibility was further tested by treating the COS-1 cells with a protease inhibitor (ALLN) that can inhibit proteases in the endoplasmic reticulum of living cells. […] The antigen was detected in the Golgi apparatus as well as in the endoplasmic reticulum. Less of the truncated version of g3p (without a membrane anchor) was detectable; whether any of it is secreted from the expressing cells under these conditions remains to be determined."}, "[1]": {"system": "binding of C. albicans hydrophilic yeast cells to splenic marginal zone macrophages", "assay": "Ex vivo adherence assay on mouse splenic tissue", "conditions": "purified epitope of mAb 10G", "excerpt": "Tissue adherence characteristics of C. albicans and adhesin isolation. By use of an ex vivo adherence assay, the adherence characteristics of hydrophilic and hydrophobic yeast cells to mouse splenic and lymph node tissue was examined (Cutler, J. E., et al., 1990, Characteristics of Candida albicans adherence to mouse tissues. Infec. Immun. 58:1902-1908); Han, Y., et al. 1993. Binding of C. albicans yeast cells to mouse popliteal lymph node tissue is mediated by macrophages. Infect. Immun. 61:3244-3249; and Hazen, K. C., et al. 1991. Differential adherence between hydrophobic and hydrophilic yeast cells of C. albicans. Infect. Immun. 59:907-91212).\nC. neoformans strain 602 log and stationary phase cells were removed form the various growth conditions and tested for adherence to splenic tissue in the ex vivo assay. […]\nHowever, 2ME extract will not inhibit yeast adherence if the extract is treated with antiserum from vaccinated animals. […] 100 μl of each was overlaid onto splenic cryosections for 15 min at 4° C., the mixtures were decanted, 100 μl of a suspension of yeast cells (1.5×10^7/0.1 ml DMEM) was added to each tissue section for 15 min at 4° C., and yeast cell binding was quantified as previously described (Riesselman, M. H. et al. 1991. Improvements and important considerations of an ex vivo assay to study interactions of C. albicans with splenic tissue., J. Immunol. Methods 1450:153-160). […]"}, "[2]": {"molecular_target": "Monoclonal Antibody B6.1 (930610), ATCC Accession No. HB11925"}, "MAb B6.1 [3]": {"system": "MAb B6.1", "assay": "Dot blot inhibition of MAb B6.1 by synthetic peptide at pH 8.6", "type": "binding, mouse", "conditions": "up to 200 μM peptide", "excerpt": "Because pH below 5 or above 8.5 is required to solubilize PS76p, the reactivity of MAb B6.1 at low and high pH was investigated. […] Although MAb B6.1 is functional at these pH conditions, the PS76p may or may not retain proper epitope conformation at this pH and may require tethering to a carrier molecule to enable inhibition studies to be done at pH 7."}, "Solubility tests": {"assay": "Solubility tests", "type": "physicochemical", "excerpt": "Synthetic peptide inhibits binding of MAb B6.1 to its' carbohydrate epitope. […] We obtained a synthetic 13-mer peptide (Bio-Synthesis, Lewisville, Tex.), YRQFVTGFWGPPC, (SEQ ID NO:7) which was designed to include the PS76 nonapeptide sequence (designated as PS76p) plus the 3 amino acid pIII tether (GPP) and an added cysteine (C) to facilitate peptide coupling to a carrier protein, such as keyhole limpet hemocyanin (KLH). Due to the high number of hydrophobic amino acids in the synthesized PS76p, solubility tests were run to determine conditions for dot blot inhibition studies. The PS76p was soluble in trifluoroacetic acid, dimethylsulfoxide, 20% v/v acetic acid, citrate and acetate buffers below pH 5.4, borate buffer above pH 8.5, but not soluble in deionized water, phosphate buffered saline (PBS), 15% v/v dimethylformamide, chloroform, or methanol."}, "C. albicans 2ME extract": {"system": "C. albicans 2ME extract", "assay": "Antibody response of mice immunized with peptide mimotope preparations", "type": "in vivo, BALB/c mice", "conditions": "for Class of the antibody response against 2ME extract: γ-chain or μ-chain specific secondary antibodies", "procedure": "Administration of peptide intraperitoneally (i.p.) BALB/c mice (4 animals) were immunized i.p. with PS76p (1 mg per dose) mixed into sterile PBS (degassed and nitrogen sparged) with and without RS-700MPL+TDM Ribi Adjuvant (Ribi Immunochem, Hamilton, Mont.). The insolubility of PS76p in PBS, as noted above, produced a particulate inoculum which was sonicated briefly (10 sec, ice cold) to minimize particulate size prior to injection. Animals were boosted with 1 mg PS76p at day 21 and serum samples were obtained on day 28. Sera from all four mice agglutinated hydrophilic C. albicans cells and agglutinated 2-ME extract-latex beads. The anti-Candida response appeared somewhat stronger in the animals receiving peptide with adjuvant.\nReactivity of the anti-PS76p sera from the mice was also tested in dot blot assays against 2-ME extract (1 μg/dot). Immune sera were diluted 1:10 in 5% BLOTTO-phage buffer, incubated 12-16 h with preblocked dot blots, washed and incubated with peroxidase-conjugated goat anti-mouse Ig (G,M, and A). […] Additional dot blots were incubated in primary antibodies as above and reacted with either γ-chain specific or μ-chain specific secondary antibodies.\nAnimals were administered booster immunizations of PS76p every two weeks and serum samples obtained 1 week after each. An ELISA assay was utilized to determine any change in titer for the anti-PS76p antiserum samples. Briefly, 2ME extract-coated wells or wells coated with an irrelevant carbohydrate were blocked in 5% BLOTTO/phage buffer and incubated with dilutions of either pre-immune sera or various anti-PS76p antiserum samples. Subsequent steps with the secondary antibody and substrate solution were as described above for ELISA. All of the anti-PS76p serum samples reacted with 2ME extract and recognized the peptide-carrier protein conjugates, but not the irrelevant carbohydrate or the carrier proteins alone. […] Other BALB/C mice (2 animals) were immunized with PS76p plus Ribi adjuvant (1 mg/dose subcutaneous inoculation (s.c.), and reached higher anti-PS76 antibody titers (e.g. 160 by ELISA) after the second boost. ELISA tests performed with class-specific secondary antibody reagents confirm that the response is primarily IgM. […]"}, "MAb B6.1 [4]": {"system": "MAb B6.1", "assay": "ELISA: peptide-carrier conjugates with MAb B6.1 at physiologic pH", "type": "binding, mouse", "conditions": "OD 490 nm", "procedure": "(§1) Samples of the final conjugates, PS76p-MBS-KLH (i.e. PS76-KLH) and PS76p-GMBS-OVA (i.e. PS76-OVA) were tested by enzyme linked immunosorbent assay (ELISA) for reactivity with MAb B6.1 at physiologic pH. Microtiter plate wells were coated with the peptide conjugates or the carrier proteins alone, washed (Tris buffered saline with 0.1% Tween-20), and blocked in 5% BLOTTO/phage buffer. Wells were washed and incubated with MAb B6.1, an irrelevant IgM (MAb S10) or block only, washed, and a horseradish peroxidase-conjugated goat anti-mouse Ig (G and M) was added. Wells were washed and an o-phenylenediamine substrate solution was added, incubated 10 min and color development stopped with 10% sulfuric acid, and the plate read at OD=490 nm. […] The PS76-KLH conjugate was utilized in an ELISA-based inhibition assay as follows. Microtiter plate wells were coated with PS76-KLH and blocked as above. MAb B6.1 ([…] in block) was pre-incubated with or without either 50 or 500 μg of acid-hydrolyzed 2ME extract per ml of solution, and then added to the conjugate coated well."}, "MAb S10": {"system": "MAb S10", "assay": "ELISA: peptide-carrier conjugates with irrelevant IgM MAb S10", "type": "binding", "conditions": "physiologic pH", "procedure": "as §1"}}, "note": "Where a SMILES comes first, the peptide text is derived from it. [ ]: non-standard residue; d: D form. Nle = CCCC[C@H](N)C(=O)O"}
{"molecule": "CCCC[C@@H](C=O)NC(=O)[C@H](CC(C)C)NC(=O)[C@H](CC(C)C)NC(C)=O", "note": "[ALLN] (Ac-Leu-Leu-[Nle]-aldehyde)", "values": [{"measurement": "Frequency and amount of g3p detectable by IFA", "setting": "g3p in COS-1 cells", "value": "significant increase"}]}
{"molecule": "OC[C@H]1O[C@@H](O[C@@H]2[C@H](O[C@@H]3[C@H](O[C@@H]4C(O)O[C@H](CO)[C@@H](O)[C@@H]4O)O[C@H](CO)[C@@H](O)[C@@H]3O)O[C@H](CO)[C@@H](O)[C@@H]2O)[C@@H](O)[C@@H](O)[C@@H]1O", "note": "(stereo partly drawn) [tetramannose, β-1,2-linked straight-chained tetramannose]", "values": [{"measurement": "Binding of yeast cells to the splenic marginal zone", "setting": "[1]", "value": "blocks binding"}]}
{"molecule": "M13KBst, the parent vector (parent phage) for the PDPL (from UniProt P69168 19-424)", "values": [{"measurement": "absorbance (OD490)", "setting": "[2]", "value": 0.021, "unit": "OD490"}, {"measurement": "absorbance (OD490)", "setting": "irrelevant IgM MAb S10", "value": 0.032, "unit": "OD490"}]}
{"molecule": "YRQFVTGFWGPPC [PS76p, synthetic 13-mer: PS76 nonapeptide plus GPP tether and added cysteine]", "values": [{"measurement": "Inhibition of MAb B6.1 binding to 2-ME extract", "setting": "MAb B6.1 [3]", "value": "negative"}, {"measurement": "Solubility", "setting": "Solubility tests; deionized water, PBS, 15% v/v dimethylformamide, chloroform, methanol", "value": "not soluble"}, {"measurement": "Solubility", "setting": "Solubility tests; trifluoroacetic acid, dimethylsulfoxide, 20% v/v acetic acid, citrate and acetate buffers below pH 5.4, borate buffer above pH 8.5", "value": "soluble"}, {"measurement": "ELISA titer against 2ME extract", "setting": "C. albicans 2ME extract; 1 mg i.p. immunizations, boosters every two weeks", "value": "~40"}, {"measurement": "Agglutination of hydrophilic C. albicans cells and 2-ME extract-latex beads by sera of immunized mice", "setting": "C. albicans 2ME extract; 1 mg per dose i.p. with and without Ribi adjuvant, boost day 21, serum day 28, all four mice", "value": "agglutinated"}, {"measurement": "ELISA anti-PS76 antibody titer", "setting": "C. albicans 2ME extract; 1 mg/dose s.c. plus Ribi adjuvant, after the second boost", "value": 160}, {"measurement": "Dot blot reactivity of immune sera to 2-ME extract", "setting": "C. albicans 2ME extract; sera 1:10, 1 μg/dot, all four immunized mice", "value": "showed reactivity"}, {"measurement": "Class of the antibody response against 2ME extract", "setting": "C. albicans 2ME extract", "value": "primarily IgM"}]}
{"molecule": "B1", "values": [{"measurement": "Reactivity with MAb B6.1 by ELISA", "setting": "MAb B6.1 [4]", "value": "reacted"}, {"measurement": "ELISA titer against 2ME extract", "setting": "C. albicans 2ME extract; conjugate s.c.", "value": 320}, {"measurement": "Class of the antibody response against 2ME extract", "setting": "C. albicans 2ME extract", "value": "primarily IgM"}, {"measurement": "Reactivity with MAb S10 by ELISA", "setting": "MAb S10", "value": "not substantially"}]}
